The values below come from patent US12600740B2, “Fluorinated N-acetyl glucosamine analogs and xylose derivatives” (UTI Limited Partnership, priority 2018, dated 2026).

In test [1] the test system is heparan sulfate proteoglycans (HSPGs) side chains. Nature of the test: Western blot of heparan sulfate GAGs (10E4) produced by astrocytes. The class given is cell-based, mouse. The text has this: Compounds that were able to reduce chondroitin GAGs were also investigated for their ability to reduce heparan sulfate GAGs. […] D. & de Vries, H. E. Extensive extracellular matrix depositions in active multiple sclerosis lesions. Neurobiology of disease 24, 484-491 (2006); van Horssen, J., Bö, L., Vos, C. M., Virtanen, I. & de Vries, H. E. Basement membrane proteins in multiple sclerosis-associated inflammatory cuffs: potential role in influx and transport of leukocytes. Journal of neuropathology and experimental neurology 64, 722-729 (2005)] and have detrimental pro-inflammatory capabilities [Parish, C. R. The role of heparan sulphate in inflammation. Nature reviews. Immunology 6, 633-643 (2006)].
Astrocytes were plated in uncoated 6-well plates (3 replicate wells per treatment) at 1×10^6 cells/well in mixed glial media, and incubated at 5% CO2 and 37° C. Astrocytes were treated with compounds at 50 μM in AIM-V media for 48 hours. Media was pooled from 3 replicate wells in 15 ml 100K cutoff centricon tubes (EMD Millipore, #UFC905008), which were spun on an ultracentrifuge at 5000× g for 2 cycles of 10 minutes each. When harvested, the cell lysate was kept on ice for 5 minutes with 250 μL of RIPA buffer (ThermoFisher Scientific #89900) containing proteinase inhibitor, and then collected and centrifuged at 14000 g for 5 minutes. Total protein was quantified using a Bradford assay. Conditioned media that were to be probed for chondroitin 4-sulfate GAGs (Millipore, #MAB2030) were first digested with 0.2 U/ml chondroitinase ABC for overnight at 37° C. to remove chondroitin sulfate sidechains. Blots that were to be probed with CSA (2H6, Cosmo) or CS56 (Abcam #ab11570) were not exposed to chondroitinase ABC. Samples were heat denatured with NuPAGE® LDS Sample buffer at 70° C. for 10 minutes and then loaded into 3-8% tris-acetate pre-cast gels (ThermoFisher, #EA0478BOX). The gels were electrophoresed at a constant 150 V for 90 minutes and transferred to a […] polyvinylidene fluoride membrane at a constant 250 mA for 60 minutes. The membranes were blocked for one hour with 10% skim milk in Tris-buffered saline (TBS; 0.9% NaCl, 10 mM Tris-HCl, pH 7.5) containing 0.5% Tween 20 (TBS-T). Primary antibodies were added in 3% skim milk and incubated overnight at 4° C. The membranes were washed 5×5 minutes with TBS-T. HRP-conjugated secondary antibodies were incubated for 120 minutes. The membranes were washed again for 5×5 minutes with TBS-T. Membranes were developed using an ECL chemiluminescence kit (GE Lifesciences) and manually exposed to developing and fixative solutions. Band density was quantified using Gel Analysis on ImageJ. A rectangular shape measured the density of bands for each lane. […]

Another test relates to TNFα. Kind of test: TNFα ELISA of LPS-stimulated bone marrow-derived macrophages. The class given is cell-based, mouse. The conditions noted are these: BMDMs, 50 μM, LPS 100 ng/ml, 24 hours. The protocol:
Multiple Sclerosis: Mechanisms and Immunotherapy. Neuron 97, 742-768 (2018)]. It was tested whether the sugar analogs could affect the activity of macrophages, using bone marrow-derived macrophages (BMDMs) stimulated with lipopolysaccharide (LPS, 100 ng/ml). The sugar analogs were added at 50 μM prior to LPS, and the conditioned medium was collected after 24 hours and assayed for levels of the secreted cytokine TNFα. […] Testing Toxicity of Sugar Analogs
Femurs were carefully removed from euthanized female C57BI/6 mice, and marrow was flushed into a culture plate with cold complete bone marrow growth medium (DMEM, 10% fetal bovine serum, and the supplements 1% penicillin/streptomycin, 1% glutamine, 1% non-essential amino acids, and 10% supernatant from L929 cell-line enriched in macrophage-colony stimulating factor). Cells were spun at 1100 rpm for 10 minutes, resuspended in fresh growth medium and plated at 10×10^6 cells/ml in a 10 cm culture dish. Cells were grown in DMEM with supplements and L929 supernatant for 5 days, then half the medium was replaced with fresh growth medium. On day 7 growth medium was replaced with DMEM with 10% FBS and supplements. Cells were used on day 8, and experiments were conducted in DMEM with 1% FBS and supplements unless otherwise specified.
BMDM were plated at 25,000 cells in 96-well plates in DMEM+L929 media. After 24 hours media was changed to DMEM+1% FBS. One hour later, cells were treated with […] compounds or PBS. After 1 hour LPS (final concentration 100 ng/ml) was added. Following 24 hours, conditioned media was harvested for TNFα ELISA (Thermo Scientific), which was performed according to manufacturer's instructions.

Molecules are shown by their SMILES.

Turning to `CCCC(=O)OC1OC(COC(C)=O)[C@@H](F)[C@H](OC(C)=O)C1NC(C)=O` (mixture of isomers) [Compound 8, 2-Acetamido-3,6-di-O-acetyl-1-O-butanoyl-2,4-dideoxy-4-fluoro-α/β-D-glucopyranose], the “HSPG side chains (intact heparan sulfate GAGs, 10E4)” value (“HSPG side chains” for short) in test [1] is reported as “slight reduction in HSPG side chains”.

Regarding `CC(=O)NC1C(O)OC(COC(C)=O)[C@@H](F)[C@@H]1OC(C)=O` (mixture of isomers) [Compound 10], in the test on TNFα, the “TNFα production by LPS-stimulated macrophages” value (“TNFα production” below) is “enhanced TNFα levels”.

Consider `CC(=O)NC1C(OC(C)=O)OC(COC(C)=O)C(F)(F)[C@@H]1OC(C)=O` (mixture of isomers) [Compound 16, 2-Acetamido-1,3,6-tri-O-acetyl-2,4-dideoxy-4,4-difluoro-α/β-D-xylo-hexopyranose], for which the “HSPG side chains” value in test [1] is listed as “slight reduction in HSPG side chains”. Moreover, the “TNFα production” value in the test with TNFα is on record as “did not alter cytokine level of activated macrophages”.

As for `CC(=O)NC1C(OC(C)=O)OC(COC(C)=O)[C@@H](F)C1OC(C)=O` (stereo partly shown) [Compound 3, reference compound], the “HSPG side chains” value in test [1] is “slight reduction in HSPG side chains”. Also, the “TNFα production” value with TNFα is on record as “did not alter cytokine level of activated macrophages”.

Take `CCCC(=O)OC[C@H]1OC(O)[C@H](NC(C)=O)[C@@H](OC(=O)CCC)[C@@H]1F` (stereo partly drawn) [Compound 12, 2-Acetamido-3,6-di-O-butanoyl-2,4-dideoxy-4-fluoro-α/β-3-D-glucopyranose]: the “HSPG side chains” value in test [1] was “slight reduction in HSPG side chains”.
